In patent US20230271956A1, “AMIDE DERIVATIVES” (Merck Patent GmbH, priority 2020, published 2023):

Columns and labels:
human rec ACSS2 = target: T1, human rec ACSS2 (Homo sapiens, UniProt Q9NR19); test: Biochemical activity ACSS2 assay (AMP-Glo); conditions: human recombinant ACSS2, AMP-Glo, 180 min at 37° C.
T1 construct: myc (C); purchased Origene
How it was run: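 C-terminal myc-tagged human recombinant ACSS2 (1 nM) reacted with 100 µM ATP, 100 µM CoA and 500 µM acetate (final) in pH 7.5 Hepes buffer for 180 min at 37° C, compound in 10 concentrations from 30 µM. Released AMP detected by AMP-Glo luminescence. IC50 normalised to inhibitor-free reaction and 5 µM reference inhibitor.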

ACSS2 = target: T2, ACSS2 (Homo sapiens, UniProt Q9NR19); test: Cellular assay of 14C acetate incorporation into fatty acids (IC50 ACSS2 cellular lipids); type: cell-based; conditions: HCT-15 cells
T2 construct: endogenous fatty acid synthesis activity in the human HCT-15 cancer cell line; endogenous in cells; host or cells: HCT-15
Experimental: This protocol describes a cellular assay capable to quantify endogenous fatty acid synthesis activity in the human HCT-15 cancer cell line following the incorporation of extracellularly administered radiolabeled ^14C acetate with a scintillation proximity based read out on extracted fatty acids.
HCT-15 cells were grown in RPMI 1640 (Gibco) supplemented with 2 mM glutamine, 1 mM sodium pyruvate 10 mM HEPES and 10 % FCS (heat-inactivated) passaged every 2-3 days to remain a subconfluent, vital culture. A working cell bank was prepared with each aliquot containing 1x10^7 viable cells. After thawing, these cells are dilute immediately 1:20 in pre-warmed (37° C.) culture medium. Cells are collected by centrifugation at 200 x g for 5 min, and the supernatant is replaced by 30 mL of fresh culture medium per aliquot to obtain a cell suspension containing 350000 cells/ml. From this cell suspension 100 µL are dispersed into each well of a collagen coated 96 well plate, (black, clear bottom, PS, F-bottom, Greiner) and culture for 24 h (37° C., 5% CO2). After incubation the culture medium is removed and the wells are washed once with 100 µL PBS++ (supplemented with Mg^2+/ Ca^2+, Gibco) and 50 µL assay medium (RPMI 1640 + 10 mM HEPES) are added to each well. Compounds serial dilutions are prepared from 10 mM stock solutions in DMSO using a fixed dilution factor (usually 1:3). After preparation of the dilution series in DMSO, the individual dilutions are further diluted in the assay medium. This working dilution is prepared such, that the concentration is 7x of the final concentration in the assay. The maximal DMSO concentration in the final assay is 0.1%.
To each well 10 µL compound working dilution or DMSO blank are added and the cells are cultured for 2 h (37° C., 5% CO2). Then 10 µL AlamarBlue reagent (Invitrogen) containing 14 µCi/mL ^14C-acetate (Perkin Elmer) are added to each well (70 µl total volume) and cells are again cultured for 2 h. Cell viability is verified by measuring the AlamarBlue fluorescence (Tecan Safire, ex: 544 nm / em: 590 nm). After incubation the culture medium is removed and the wells are carefully washed once with cold 100 µL PBS++. For cell lysis and fatty acid recovery 50 µl 0.1 M NaOH and 0.1 % Triton-X100 are added per well. The plate is sealed with PlateLoc (clear peelable heat seal, Agilent) and incubate at 70° C. for 16-24 h. After cooling to room temperature, the plates are centrifuged for 1 min at 1000 rpm and the plate seals are removed. For acidification 150 µL 0.1 M HCl are added to each well, mixed and 150 µL of the mixture are transferred into a 96 well FlashPlate (Perkin Elmer). The plates are sealed with TopSeaI-a (Perkin Elmer). To allow for the fatty acid binding to the well surfaces the plates are incubate for 4 h at 70° C. After cooling to room temperature, the plates are centrifuged for 1 min at 1000 rpm and stored for 0.5-2 h at room temperature in the dark. Radioactivity from ^14C incorporation into fatty acids in the wells is measured as CPM count in a MicroBeta scintillation counter (Perkin Elmer).

T2 sequence (Q9NR19 whole entry): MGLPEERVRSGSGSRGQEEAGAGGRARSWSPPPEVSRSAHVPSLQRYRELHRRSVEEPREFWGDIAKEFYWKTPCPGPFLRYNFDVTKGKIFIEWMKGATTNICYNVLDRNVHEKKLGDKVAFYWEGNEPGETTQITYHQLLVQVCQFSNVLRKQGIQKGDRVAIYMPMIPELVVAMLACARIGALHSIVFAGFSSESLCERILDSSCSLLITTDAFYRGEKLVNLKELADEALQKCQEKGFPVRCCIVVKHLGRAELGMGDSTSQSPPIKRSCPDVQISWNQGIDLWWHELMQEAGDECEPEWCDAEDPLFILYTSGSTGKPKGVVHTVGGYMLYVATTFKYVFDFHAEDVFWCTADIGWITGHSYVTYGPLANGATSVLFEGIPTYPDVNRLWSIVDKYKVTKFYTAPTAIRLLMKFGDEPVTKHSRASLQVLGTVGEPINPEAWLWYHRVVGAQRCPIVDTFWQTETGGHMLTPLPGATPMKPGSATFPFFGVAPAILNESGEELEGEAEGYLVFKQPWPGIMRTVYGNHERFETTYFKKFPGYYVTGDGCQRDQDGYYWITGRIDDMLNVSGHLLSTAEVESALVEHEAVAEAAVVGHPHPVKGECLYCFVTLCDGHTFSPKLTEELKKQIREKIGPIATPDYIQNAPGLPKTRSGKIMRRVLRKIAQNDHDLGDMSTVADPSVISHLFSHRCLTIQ
T1 sequence (Q9NR19 whole entry): as above

CCc1c(C(O)(c2ccccc2F)c2ccccc2F)nn2cc(Cl)c(C(=O)Nc3ncn(CC)n3)cc12 [Compound 2, 2-[Bis-(2-fluoro-phenyl)-hydroxy-methyl]-6-chloro-3-ethyl-pyrazolo[1,5-a]pyridine-5-carboxylic acid (1-ethyl-1H-[1,2,4]triazol-3-yl)-amide] showed an IC50 (human rec ACSS2) of 1 to 10 nM and an IC50 (ACSS2) of 0.01 to 1 nM.
CCn1cnc(NC(=O)c2cc3c(nc2OC)nc(C(O)(c2ccccc2F)c2ccccc2F)n3CC)n1 [Compound 102, 2-[bis(2-fluorophenyl)(hydroxy)methyl]-1-ethyl-N-(1-ethyl-1H-1,2,4-triazol-3-yl)-5-methoxy-1H-imidazo[4,5-b]pyridine-6-carboxamide] gave an IC50 (human rec ACSS2) of 0.01 to 1 nM and an IC50 (ACSS2) of 1 to 10 nM.
In the case of CCc1c(C(O)(c2ccccc2)c2ccccc2)nn2cc(Cl)c(C(=O)Nc3ncn(CC)n3)cc12 [Compound 1, 6-Chloro-3-ethyl-2-(hydroxy-diphenylmethyl)-pyrazolo[1,5-a]pyridine-5-carboxylic acid (1-ethyl-1H-[1,2,4]triazol-3-yl)-amide], the IC50 (human rec ACSS2) is reported as 0.01 to 1 nM and the IC50 (ACSS2) is reported as 0.01 to 1 nM.
Compound CCn1cc(NC(=O)c2cc3c(nc2F)nc(C(O)(c2ccccc2F)c2ccccc2F)n3CC)cn1 [Compound 90, 2-[bis(2-fluorophenyl)(hydroxy)methyl]-1-ethyl-N-(1-ethyl-1H-pyrazol-4-yl)-5-fluoro-1H-imidazo[4,5-b]pyridine-6-carboxamide] has an IC50 (human rec ACSS2) of 1 to 10 nM and an IC50 (ACSS2) of 1 to 10 nM.
CCn1cc(NC(=O)c2cc3c(nc2Cl)nc(C(O)(c2ccccc2)c2ccccc2)n3CC)cn1 [Compound 98, 5-chloro-1-ethyl-N-(1-ethyl-1H-pyrazol-4-yl)-2-(hydroxydiphenylmethyl)-1H-imidazo[4,5-b]pyridine-6-carboxamide] was tested, and the IC50 (human rec ACSS2) was 1 to 10 nM and the IC50 (ACSS2) was 10 to 100 nM.
CCc1c(C(O)(c2ccccc2)c2ccccc2)nn2cc(Cl)c(C(=O)Nc3cnn(CC)c3)cc12 [Compound 6, 6-Chloro-3-ethyl-2-(hydroxy-diphenylmethyl)-pyrazolo[1,5-a]pyridine-5-carboxylic acid (1-ethyl-1H-pyrazol-4-yl)-amide] showed an IC50 (human rec ACSS2) of 10 to 100 nM and an IC50 (ACSS2) of 1 to 10 nM.
With CCn1cnc(NC(=O)c2cc3c(nc2OC)nc(C(O)(c2ccccc2)c2ccccc2)n3CC)n1 [Compound 103, 1-ethyl-N-(1-ethyl-1H-1,2,4-triazol-3-yl)-2-(hydroxydiphenylmethyl)-5-methoxy-1H-imidazo[4,5-b]pyridine-6-carboxamide] the IC50 (human rec ACSS2) was 1 to 10 nM and the IC50 (ACSS2) was 1 to 10 nM.
CCn1cnc(NC(=O)c2cc3c(nc2F)nc(C(O)(c2ccccc2F)c2ccccc2F)n3CC)n1 [Compound 91, 2-[bis(2-fluorophenyl)(hydroxy)methyl]-1-ethyl-N-(1-ethyl-1H-1,2,4-triazol-3-yl)-5-fluoro-1H-imidazo[4,5-b]pyridine-6-carboxamide] showed an IC50 (human rec ACSS2) of 1 to 10 nM and an IC50 (ACSS2) of 1 to 10 nM.
With CCc1c(C(O)(c2ccccc2F)c2ccccc2F)nn2ccc(C(=O)Nc3ncn(CC)n3)cc12 [Compound 5, 2-[Bis-(2-fluoro-phenyl)-hydroxy-methyl]-3-ethyl-pyrazolo[1,5-a]pyridine-5-carboxylic acid (1-ethyl-1H-[1,2,4]triazol-3-yl)-amide] the IC50 (human rec ACSS2) was 1 to 10 nM and the IC50 (ACSS2) was 0.01 to 1 nM.
CCc1c(C(O)(c2ccccc2F)c2ccccc2F)nn2cc(C)c(C(=O)Nc3ncn(CC)n3)cc12 [Compound 3, 2-[Bis-(2-fluoro-phenyl)-hydroxy-methyl]-3-ethyl-6-methyl-pyrazolo[1,5-a]pyridine-5-carboxylic acid (1-ethyl-1H-[1,2,4]triazol-3-yl)-amide] gave an IC50 (human rec ACSS2) of 1 to 10 nM and an IC50 (ACSS2) of 10 to 100 nM.
In the case of CCc1c(C(O)(c2ccccc2F)c2ccccc2F)nc2cc(OC)c(C(=O)Nc3ncn(CC)n3)cn12 [Compound 28, 2-[Bis-(2-fluoro-phenyl)-hydroxy-methyl]-3-ethyl-7-methoxy-imidazo[1,2-a]pyridine-6-carboxylic acid (1-ethyl-1H-[1,2,4]triazol-3-yl)-amide], the IC50 (human rec ACSS2) is reported as 1 to 10 nM and the IC50 (ACSS2) is reported as 1 to 10 nM.
CCc1c(C(O)(c2ccccc2F)c2ccccc2F)nc2cc(OC)c(C(=O)Nc3cnn(CC)c3)cn12 [Compound 30, 2-[Bis-(2-fluoro-phenyl)-hydroxy-methyl]-3-ethyl-7-methoxy-imidazo[1,2-a]pyridine-6-carboxylic acid (1-ethyl-1H-pyrazol-4-yl)-amide] showed an IC50 (human rec ACSS2) of 1 to 10 nM and an IC50 (ACSS2) of 0.01 to 1 nM.
With CCc1c(C(O)(c2ccccc2)c2ccccc2)nc2cc(OC)c(C(=O)Nc3ncn(CC)n3)cn12 [Compound 24, 3-Ethyl-2-(hydroxy-diphenyl-methyl)-7-methoxy-imidazo[1,2-a]pyridine-6-carboxylic acid (1-ethyl-1H-[1,2,4]triazol-3-yl)-amide] the IC50 (human rec ACSS2) was 1 to 10 nM and the IC50 (ACSS2) was 1 to 10 nM.
Compound CCc1c(C(O)(c2ccccc2)c2ccccc2)nn2ccc(C(=O)Nc3cnn(CC)c3)cc12 [Compound 10, 3-Ethyl-2-(hydroxy-diphenyl-methyl)-pyrazolo[1,5-a]pyridine-5-carboxylic acid (1-ethyl-1H-pyrazol-4-yl)-amide] has an IC50 (human rec ACSS2) of 10 to 100 nM and an IC50 (ACSS2) of 10 to 100 nM.
CCc1c(C(O)(c2ccccc2)c2ccccc2)nc2cc(OC)c(C(=O)Nc3cnn(CC)c3)cn12 [Compound 23, 3-Ethyl-2-(hydroxy-diphenyl-methyl)-7-methoxy-imidazo[1,2-a]pyridine-6-carboxylic acid (1-ethyl-1H-pyrazol-4-yl)-amide] gave an IC50 (human rec ACSS2) of 1 to 10 nM and an IC50 (ACSS2) of 10 to 100 nM.
CCc1c(C(O)(c2ccccc2)c2ccccc2)nc2cc(Cl)c(C(=O)Nc3cnn(CC)c3)cn12 [Compound 19, 7-Chloro-3-ethyl-2-(hydroxy-diphenylmethyl)-imidazo[1,2-a]pyridine-6-carboxylic acid (1-ethyl-1H-pyrazol-4-yl)-amide] showed an IC50 (human rec ACSS2) of 10 to 100 nM and an IC50 (ACSS2) of 10 to 100 nM.
Compound CCn1cnc(NC(=O)c2cc3c(nc2F)nc(C(O)(c2ccccc2)c2ccccc2)n3CC)n1 [Compound 89, 1-ethyl-N-(1-ethyl-1H-1,2,4-triazol-3-yl)-5-fluoro-2-(hydroxydiphenylmethyl)-1H-imidazo[4,5-b]pyridine-6-carboxamide] has an IC50 (human rec ACSS2) of 1 to 10 nM and an IC50 (ACSS2) of 1 to 10 nM.
Work on CCc1c(C(O)(c2ccccc2)c2ccccc2)nn2cc(OC)c(C(=O)Nc3cnn(CC)c3)cc12 [Compound 8, 3-Ethyl-2-(hydroxy-diphenyl-methyl)-6-methoxy-pyrazolo[1,5-a]pyridine-5-carboxylic acid (1-ethyl-1H-pyrazol-4-yl)-amide] yielded an IC50 (human rec ACSS2) of 10 to 100 nM and an IC50 (ACSS2) of 10 to 100 nM.
CCn1c(C(O)(c2ccccc2)c2ccccc2)nc2ccc(C(=O)NC[C@@H](C)O)cc21 [Reference Compound, 3-Ethyl-2-[hydroxy(diphenyl)methyl]-N-[(2R)-2-hydroxypropyl]benzimidazole-5-carboxamide, reference compound] showed an IC50 (human rec ACSS2) of 100 to 10000 nM and an IC50 (ACSS2) of 1 to 10 nM.
Work on CCc1c(C(O)(c2ccccc2)c2ccccc2)nn2cc(OC)c(C(=O)Nc3ncn(CC)n3)cc12 [Compound 11, 3-Ethyl-2-(hydroxy-diphenyl-methyl)-6-methoxy-pyrazolo[1,5-a]pyridine-5-carboxylic acid (1-ethyl-1H-[1,2,4]triazol-3-yl)-amide] yielded an IC50 (human rec ACSS2) of 1 to 10 nM and an IC50 (ACSS2) of 1 to 10 nM.
With CCc1c(C(O)(c2ccccc2)c2ccccc2)nc2ccc(C(=O)Nc3cnn(CC)c3)cn12 [Compound 13, 3-Ethyl-2-(hydroxy-diphenyl-methyl)-imidazo[1,2-a]pyridine-6-carboxylic acid (1-ethyl-1H-pyrazol-4-yl)-amide] the IC50 (human rec ACSS2) was 10 to 100 nM and the IC50 (ACSS2) was 100 to 10000 nM.
CCc1c(C(O)(c2ccccc2F)c2ccccc2F)nn2cc(OC)c(C(=O)Nc3cnn(CC)c3)cc12 [Compound 4, 2-[Bis-(2-fluoro-phenyl)-hydroxy-methyl]-3-ethyl-6-methoxy-pyrazolo[1,5-a]pyridine-5-carboxylic acid (1-ethyl-1H-pyrazol-4-yl)-amide] gave an IC50 (human rec ACSS2) of 10 to 100 nM and an IC50 (ACSS2) of 10 to 100 nM.
